Test results as given in patent publication US20240293367A1, “METHODS OF TREATING DISORDERS WITH A […]” (Cybin IRL Limited, priority 2023, published 2024).

Test: 28-day (4-week GLP) toxicology study in dogs, toxicokinetic exposure
Details: both sexes, dog, in vivo, toxicokinetic data, 28-day toxicology study in dogs, combined male and female
Text: The exposure limits will be applied on mean values within a cohort.

Which AUC(0-t) (read-out: predefined maximum exposure level, AUC0-24) does the source give for [2H]C([2H])([2H])N(C([2H])([2H])[2H])C([2H])([2H])C([2H])([2H])c1c[nH]c2cccc(O)c12 [psilocin-d10, 3-(2-(bis(methyl-d3)amino)ethyl-1,1,2,2-d4)-1H-indol-4-ol] here?
Its AUC(0-t) is 0.123 µg·h/mL.

And the Cmax (read-out: predefined maximum exposure level, Cmax)?
Its Cmax is 0.063 µg/mL.
